The text below walks through data of PMC9127493 (Signal Transduction and Targeted Therapy, 2022).

The CC50 is the concentration at which the toxic effect on the cells reaches its halfway point. A word on the bioavailability: it is dose-corrected exposure relative to a reference, in per cent. As a reminder, the EC50 is the concentration at which the effect is half-maximal. By Kd is commonly meant the equilibrium constant for the complex coming apart. What is called AUC(0-inf) is the area under the concentration-time curve extrapolated to infinity. The low end stands for low exposure, the high end for high exposure. In general, AUC(0-t) refers to the area under the concentration-time curve up to a stated or last time point. A high value points to more exposure. What is called Tmax is the time from dosing to the highest level. As usually defined, the half-life is the time in which the quantity being followed falls by half. As usually defined, the Cmax is the maximum level reached in the sampled fluid or tissue.

The structures appear in SMILES notation. Read-outs that look alike come from different tables or passages of the source.

In data set [1] the test system is Vero E6 cells. As to the kind of experiment: Morphological observations, cytoplasmic vacuolization. Format: cell-based, African green monkey. The settings on record: for induction of cytoplasmic vacuoles: Vero E6 cells, 5 μM, 8 h. On the procedure:
Morphological observations
Cells were seeded into 96-well plates and treated with test drugs for indicated time periods. Pictures of cells were subsequently obtained using Biotek Cytation-5&BioSpa8.

Data set [2] can be described thus: Cytotoxicity of drugs used in pseudovirus experiments (MTS). Format: cell-based. The settings on record: human; 293T-hACE2 cells, MTS assay at 48 hours, n = 3. On the procedure: Cells were seeded into 96-well plates and exposed to serially diluted drugs for 48 h. Cell viability was determined using MTS (Promega, Madison, WI, USA), according to the manufacturer’ s instructions. The absorbance was measured in Varioskan Flash (Thermo) at 490 nm. Data were normalized to the control group (DMSO). CC50 values were calculated by concentration-response curve-fitting using GraphPad Prism.
293T-hACE2 cells were treated with serially diluted drugs and cytotoxicity was determined by MTS assay at 48 hours (n = 3).
In general terms: Tetrazolium assays rely on reduction of a dye to a coloured formazan, in cell work by metabolically active cells.

Data set [3] concerns SARS-CoV-2. As to the kind of experiment: Cytopathic effect (CPE) inhibition assay in Vero E6 cells. Format: cell-based. The settings on record: wild-type SARS-CoV-2, MOI = 0.1, 48 h. On the technique in general: Protection from cytopathic effect is a common read-out in antiviral testing.
On the set-up of data set [4]: method as in PMID 31628917. Particulars: patients with Crohn’s disease and rheumatoid arthritis; cited from earlier work.
Data set [5] deals with SARS-CoV-2 wild-type isolate XM088T. As to the kind of experiment: Antiviral efficacy assay, qRT-PCR of virus released in supernatants. Format: cell-based. Particulars: MOI of 0.05, pretreated 2 h, qRT-PCR at 48 h p.i., n = 3. (In qPCR the cycle at which signal appears reflects the starting amount.)
In data set [6] the test system is 293T-ACE2iRb3 cells. Put plainly: Visualization of SARS-CoV-2 cell entry with STG probe. Format: cell-based, human. The settings on record: pretreated with 2 μM for 1 h, 3 h post STG incubation. How it is done: Visulization of SARS-CoV-2 cell entry
To visualize the effect of drugs on viral entry, 293T-ACE2iRb3 cells were pretreated with serially diluted drugs for 1 h before STG probes addition for further incubation. Cell images shown in Fig 1e were acquired using a 100× oil immersion objective. The data shown in Fig S3 was derived from images acquired on Opera Phenix using 40× water immersion objective. For images of Fig 1e, cells were gently washed twice with PBS after 3 h incubation with STG, following a paraformaldehyde fixation before imaging. Cell images involved in Fig S3 were obtained under wash-free and live-cell conditions. The construction of STG probe used here and the image quantitative analysis were performed as previously described^1.
All drugs were tested in a 3-fold dilution series and the initial drug concentration was 15 μM. Three and five replicate wells were performed for the DMSO and drug groups, respectively. 25 fields of each well were imaged for quantitative analyses after 3 h incubation with STG-probe.

A short description of data set [7]: Antiproliferation (MTS) assay, cytotoxicity. Format: cell-based. Particulars: African green monkey, Vero E6 cells. How it is done: Cell viability was determined using MTS (Promega, Madison, WI, USA), according to the manufacturer’ s instructions. The absorbance was measured in Varioskan Flash (Thermo) at 490 nm. Data were normalized to the control group (DMSO). CC50 values were calculated by concentration-response curve-fitting using GraphPad Prism.

Data set [8] deals with SARS-CoV-2. Put plainly: Time-of-addition experiment. Particulars: Vero E6 cells, qRT-PCR at 24 h p.i. and nucleoprotein Western blot. Format: cell-based. How it is done: Time-of-addition experiment
Vero E6 cells were plated into 6-well plates and grew overnight. During “Full-time” treatment, cells were first treated with drug for two hours, and then infected with the virus for two hours. After that, the mixed supernatant was removed and cells were washed twice with PBS and finally cultured in fresh medium containing the same concentration of drug. For “Entry” treatment, pre-treatment and infection operations were similar to that in “Full-time” treatment. However, cells were cultured in drug-free medium after the mixed supernatant removed. As for “Post-entry” treatment, cells were infected with virus for 2 h before treated with drug for 2 h. Then the mixture was removed and fresh medium containing drug was added after cells were washed with PBS. The DMSO-control group was treated in the same way as “Full-time” group. For quantitative PCR, the MOI was controlled at 0.05 and supernatant was harvest at 24 h post infection. While for western blot, MOI was controlled at 0.30 and cells were harvest at 72 h post infection to identify the virus protein expression.

The target of data set [9] is T1, PIKfyve (Homo sapiens, UniProt Q9Y2I7).
T1 construct: purchased Eurofins DiscoverX Corporation (KINOMEscan service); host or cells: HEK-293
T1 sequence (Q9Y2I7 whole entry): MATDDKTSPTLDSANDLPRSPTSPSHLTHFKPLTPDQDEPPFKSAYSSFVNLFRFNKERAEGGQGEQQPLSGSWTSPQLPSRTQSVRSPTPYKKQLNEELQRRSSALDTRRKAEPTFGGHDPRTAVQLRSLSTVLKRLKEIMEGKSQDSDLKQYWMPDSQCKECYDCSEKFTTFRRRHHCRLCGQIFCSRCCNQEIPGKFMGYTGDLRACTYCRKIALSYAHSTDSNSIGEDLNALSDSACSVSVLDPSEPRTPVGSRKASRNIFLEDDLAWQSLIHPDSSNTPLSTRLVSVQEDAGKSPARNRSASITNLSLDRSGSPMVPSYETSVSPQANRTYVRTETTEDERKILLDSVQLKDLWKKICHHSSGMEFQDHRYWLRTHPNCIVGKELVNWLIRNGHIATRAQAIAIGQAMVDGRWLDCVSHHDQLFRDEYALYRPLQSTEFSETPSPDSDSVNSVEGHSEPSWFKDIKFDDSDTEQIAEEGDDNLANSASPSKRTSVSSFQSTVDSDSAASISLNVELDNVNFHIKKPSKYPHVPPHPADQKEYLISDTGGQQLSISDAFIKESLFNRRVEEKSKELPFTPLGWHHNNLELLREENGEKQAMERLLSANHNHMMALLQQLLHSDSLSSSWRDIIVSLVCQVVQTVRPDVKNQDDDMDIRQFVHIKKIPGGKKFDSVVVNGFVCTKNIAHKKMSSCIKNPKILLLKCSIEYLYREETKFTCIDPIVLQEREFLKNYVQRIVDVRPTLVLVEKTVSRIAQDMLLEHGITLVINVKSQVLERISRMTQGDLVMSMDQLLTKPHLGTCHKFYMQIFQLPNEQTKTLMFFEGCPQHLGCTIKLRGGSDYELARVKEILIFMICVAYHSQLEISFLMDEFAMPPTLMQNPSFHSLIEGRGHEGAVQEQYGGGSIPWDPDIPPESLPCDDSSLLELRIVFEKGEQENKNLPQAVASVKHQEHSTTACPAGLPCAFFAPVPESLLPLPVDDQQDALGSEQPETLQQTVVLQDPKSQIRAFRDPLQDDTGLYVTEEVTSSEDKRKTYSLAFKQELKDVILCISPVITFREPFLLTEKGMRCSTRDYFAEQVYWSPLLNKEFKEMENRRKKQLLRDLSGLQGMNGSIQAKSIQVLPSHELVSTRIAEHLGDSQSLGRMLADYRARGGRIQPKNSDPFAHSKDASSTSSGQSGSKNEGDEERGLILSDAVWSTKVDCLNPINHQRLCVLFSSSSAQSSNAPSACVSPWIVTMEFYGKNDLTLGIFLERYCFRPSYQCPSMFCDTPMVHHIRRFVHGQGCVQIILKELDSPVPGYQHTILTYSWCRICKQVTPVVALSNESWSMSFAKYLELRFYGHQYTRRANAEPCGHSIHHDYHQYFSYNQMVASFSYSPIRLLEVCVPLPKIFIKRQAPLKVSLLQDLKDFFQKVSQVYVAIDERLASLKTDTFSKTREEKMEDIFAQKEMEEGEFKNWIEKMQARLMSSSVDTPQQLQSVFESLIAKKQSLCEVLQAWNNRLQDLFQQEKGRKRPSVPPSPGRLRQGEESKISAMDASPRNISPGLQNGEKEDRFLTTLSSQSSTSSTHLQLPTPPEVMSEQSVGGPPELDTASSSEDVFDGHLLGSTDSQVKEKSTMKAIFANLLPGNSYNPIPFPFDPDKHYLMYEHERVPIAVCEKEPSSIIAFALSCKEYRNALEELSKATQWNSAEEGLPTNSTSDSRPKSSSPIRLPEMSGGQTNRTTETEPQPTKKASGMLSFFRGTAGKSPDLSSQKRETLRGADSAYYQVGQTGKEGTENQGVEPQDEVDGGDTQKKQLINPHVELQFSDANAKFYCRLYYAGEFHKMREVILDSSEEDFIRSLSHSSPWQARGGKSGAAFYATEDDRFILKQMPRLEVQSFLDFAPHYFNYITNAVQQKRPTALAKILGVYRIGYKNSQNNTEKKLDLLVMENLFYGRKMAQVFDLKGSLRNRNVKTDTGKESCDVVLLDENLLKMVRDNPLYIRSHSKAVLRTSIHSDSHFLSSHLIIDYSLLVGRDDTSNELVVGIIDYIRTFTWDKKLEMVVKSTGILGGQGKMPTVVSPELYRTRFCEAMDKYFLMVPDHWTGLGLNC
Put plainly: KINOMEscan competitive binding assay, Kds determination. From the text: KINOMEscan technology is a competitive affinity-based binding assay provided by Eurofins DiscoverX Corporation^3. Briefly, kinases were produced in HEK-293 cells and tagged with DNA for qPCR detection. Affinity resins were generated by treating streptavidin-coated magnetic beads with biotinylated small molecule ligands. For binding assays, the liganded beads were combined with DNA-tagged kinases and the test compounds. DMSO was used as a control. Compounds that bind to the DNA-tagged kinases will prevent these kinases binding with immobilized ligands and reduce the amount of the corresponding kinases captured on solid support. Kds were determined using 11 serial threefold dilutions of the test compounds and a DMSO control.
Supplementary Figure S1. The equilibrium dissociation constant (Kd) for XMU-MP-7 with PIKfyve was determined from 2 independent titration curves.

Data set [10] in a line: Pharmacokinetics after single intravenous and oral administration. Format: in vivo. Particulars: Sprague Dawley, plasma, rat; for MRT inf: read-out: MRT(0-∞). How it is done:
The pharmacokinetics of XMU-MP-7 were determined following single intravenous and oral administration in Sprague Dawley rat (N = 3/each) at the dose indicated. Blood samples were collected at 0.08, 0.25, 0.5, 1, 2, 4, 8 & 24 hr (IV) & 0.25, 0.5, 1, 2, 4, 6, 8 & 24 hr (PO) post dose. Then the samples were quantified by LC-MS/MS, and data analysis was conducted using WinNonlin V6.3. IV = intravenous injection, PO = oral delivery, Tmax = time of maximum plasma concentration, Cmax = maximum plasma concentration, AUC = area under the curve (measure of exposure), T1/2 = half life, Cl = plasma clearance, Vd = volume of distribution, F = oral bioavailability.

Data set [11] concerns cathepsin B. As to the kind of experiment: Cathepsin B activation, Western blot. Format: cell-based, human. Particulars: A549 cells, time- and dose-dependent.
Where [12] appears, read: Severe acute respiratory syndrome coronavirus 2, Vero C1008, Vero E6 cells.

With `Cc1cccc(/C=N/Nc2cc(N3CCOCC3)nc(OCCc3ccccn3)n2)c1` [Apilimod], in data set [1], the “time to visible cytoplasmic vacuoles” value was “less than 20 min” and the “induction of cytoplasmic vacuoles” value is recorded as “induced cytoplasmic vacuoles”. This molecule gave a half-maximal cytotoxic concentration (CC50) at 48 h in data set [2] greater than 10 µM. Besides, the “rescue of cytopathic effect” value in [3] was “significantly rescued the cytopathic effects”. Moreover, in [4], the bioavailability entry was “poor bioavailability” and the plasma concentration entry was “unexpected low plasma concentration”. Besides, in data set [5] (setting [12]), the EC50 is less than 0.0069 µM. In addition, in data set [6], the “STG probe internalization (confocal images)” value (“STG probe internalization” for short) is reported as “almost completely trapped on the enlarged cytoplasmic vacuoles”. This molecule returned a CC50 at 48 h in [7] (48 h, n = 3) of 41.8 µM.
In the case of `CC(C)(C)[C@H](NC(=O)C(F)(F)F)C(=O)N1C[C@H]2[C@@H]([C@H]1C(=O)N[C@H](C#N)C[C@@H]1CCNC1=O)C2(C)C` [PF-07321332], the EC50 in data set [5] (Vero E6 cells, read-out: EC50) amounted to 0.487 µM.
`CCC(CC)COC(=O)[C@H](C)N[P@](=O)(OC[C@H]1O[C@@](C#N)(c2ccc3c(N)ncnn23)[C@H](O)[C@@H]1O)Oc1ccccc1` [Remdesivir]: the “stage of infection at which the drug acts” value in [8] is on record as “only exerted an inhibitory effect at post-entry stage”. In addition, the half-maximal effective concentration (EC50) in data set [5] (setting [12]) was determined as 1.64 µM. Besides, in data set [6], the “STG probe internalization” value is recorded as “STG entered the cytoplasm”. The molecule further showed a CC50 at 48 h in data set [7] (48 h, n = 3) greater than 150 µM.
Turning to `CCN(CC)CCCC(C)Nc1ccnc2cc(Cl)ccc12` (stereo not drawn) [Chloroquine], the EC50 in [5] (setting [12]) was 0.549 µM; in data set [5] (Vero E6 cells), roughly 0.5 µM. Also, the midpoint of cytotoxicity in data set [7] (48 h, n = 3), the CC50 at 48 h, lay at 54.8 µM.
In the case of `Cc1ccc(NC(=O)c2cccc(C(F)(F)F)c2)cc1Nc1nc(-c2ccncc2)c2[nH]ccc2n1` [cmpd 24], the “induction of cytoplasmic vacuoles” value in data set [1] is “could not induce visible vacuoles”. The CC50 at 48 h is greater than 10 µM in data set [2] and 51.7 µM in data set [7] (48 h, n = 3). This molecule returned an equilibrium dissociation constant (Kd) in data set [9] greater than 30 µM. Also, the half-maximal effective concentration (EC50) in data set [5] (setting [12]) came out at 12.3 µM. The “STG probe internalization” value in [6] is on record as “STG entered the cytoplasm”.
Take `COc1ccc(C(=O)Nc2cccc(C(F)(F)F)c2)cc1Nc1nc(-c2cccnc2)c2[nH]ccc2n1` [XMU-MP-7]: the “stage of infection at which the drug acts” value in data set [8] is “potent antiviral roles at both entry and post-entry stages”. Moreover, in data set [1], the “time to visible cytoplasmic vacuoles” value was “less than 20 min” and the “induction of cytoplasmic vacuoles” value was “dramatically induced cytoplasmic vacuoles”. Moreover, in data set [10] (IV, 2 mg/kg), the area under the curve AUC(0-inf) is 4250 ng·h/mL, the AUC(0-t) was found to be 4250 ng·h/mL, the C0 amounted to 14000 ng/mL and the Tmax came out at 0.08 h. In data set [10] (IV, 2 mg/kg), the Vd is 0.2 L/kg, the clearance amounted to 7.88 mL/min/kg, the half-life was 0.608 h and the MRT inf amounted to 0.429 h. In data set [10] (PO, 10 mg/kg), the AUC(0-inf) stood at 2210 ng·h/mL, the AUC(0-t) was found to be 2200 ng·h/mL, the Cmax came out at 429 ng/mL and the Tmax is 2.33 h. Also, in data set [10] (PO, 10 mg/kg), the half-life is 3.06 h and the MRT inf is 3.81 h. In data set [10] (PO, 10 mg/kg, read-out: F (oral bioavailability)), the bioavailability is 10.4%. In addition, in data set [2], the half-maximal cytotoxic concentration (CC50) at 48 h was greater than 10 µM. Besides, the “rescue of cytopathic effect” value in data set [3] is reported as “significantly rescued the cytopathic effects”. In [9], the equilibrium dissociation constant (Kd) came to 0.0064 µM. In data set [11], the “maturation of active cathepsin B” value was “impaired the maturation of active cathepsin B”. Further, the concentration for a half-maximal effect (EC50) in data set [5] (setting [12]) amounted to 0.0093 µM. Moreover, the “STG probe internalization” value in [6] is recorded as “almost completely trapped on the enlarged cytoplasmic vacuoles”. The same molecule returned a CC50 at 48 h in [7] greater than 150 µM.
